Source: US5968987A, “Halofantrine free base for the treatment of malaria and compositions” (priority 1994, dated 1999)
Structures can show the parent of a compound that is named as a salt. Blank lines part the entries; values can stand above or below the compound they belong to.

Assays:
[1] = physchem; format: physicochemical
Excerpt: The following data and examples serve to illustrate the invention.

[2] = in words, background; cited from earlier work
[3] = in words, background; cited from earlier work; remark: listed apart in the source
[4] = test system: malarial infections; conditions: in words, background; cited from earlier work

solubility ([1]; peanut oil, organic solvent or mixture, miscible/soluble with peanut oil): > 400000 µg/mL
SMILES: CCCCN(CCCC)CCC(O)c1cc2c(Cl)cc(Cl)cc2c2cc(C(F)(F)F)ccc12 (centres unmarked) [amorphous halofantrine free base]

solubility ([1]; triglycerides, organic solvent or mixture, solubility in triglycerides): > 80000 µg/mL
SMILES: CCCCN(CCCC)CCC(O)c1cc2c(Cl)cc(Cl)cc2c2cc(C(F)(F)F)ccc12 (centres unmarked) [crystalline halofantrine free base]

lipid solubility and miscibility [1]: unexpectedly high
SMILES: CCCCN(CCCC)CCC(O)c1cc2c(Cl)cc(Cl)cc2c2cc(C(F)(F)F)ccc12 (centres unmarked) [halofantrine free base]

solubility ([1]; aqueous solutions, solubility in aqueous solutions): ~1 µg/mL
solubility ([1]; peanut oil, organic solvent or mixture, solubility in a triglyceride lipid such as peanut oil): < 1000 µg/mL
SMILES: CCCCN(CCCC)CCC(O)c1cc2c(Cl)cc(Cl)cc2c2cc(C(F)(F)F)ccc12 (centres unmarked) [halofantrine hydrochloride]
aqueous and lipid solubility [2]: poor
absorption after oral administration [3]: poor and often variable
effectiveness in the treatment of malarial infections [4]: very effective
